In patent publication US12012415B2, “Compositions and methods for the diagnosis, treatment and prevention of neoplastic and neurological disorders” (AscentGene, Inc., priority 2018, dated 2024):

Columns and labels:
[1] = tested on: Rat glioblastoma cell lines C6; assay: Cell growth of glioblastoma cell line C6; assay type: cell-based; conditions: cell growth rate from number of live cells
Description: Rat glioblastoma cell lines C6 (A) and human non-small cell lung cancer cell line H841 (B) were grown in the proper medium and treated with different concentration of drug candidate AG-1031 (P) and AG-1503 (#3). Cell growth rate was calculated based on the number of live cells as compared to concentration in M of selected small molecules of the invention (see FIGS. 6A and 6B).

[2] = tested on: U251 cells; assay: Cell viability, combination with TMZ in U251 cells; assay type: cell-based, human
Description: (§1) Human glioma cell lines of U251, SF539, SF295 were obtained from NCI/DTP and U87 was obtained from ATCC. U251, SF539, and SF295 cells were grown in RPMI (Gibco) medium; U87 cells were grown in EMEM medium (ATCC), all the cells culture media containing 10% FBS and 100 unit/ml of Penicillin-Streptomycin, and cells were incubated in a 37 °C/5% CO2 humidified hood. One day before chemical compounds treatment, four kinds of cells U251, SF539, SF295, and U87 were seeded in 96-well plates at 10,000 cells/well (100 μl) with triplicate. The culture medium was removed and cells were treated with a series different concentration of AG1601/in correspond fresh media. Following an additional incubation of 48 hours at 37° C./5% CO2, cells proliferation assay was performed with Cell Counting Kit-8 (Dojindo Laboratories, #CK04), added 10 μl of reagent to the cells in each well after replacing with 100 μl of fresh media, mix well, following an additional 2 to 3 hours incubation at 37° C./5% CO2, read wavelengths of OD450 nm in a 96-well plate reader (Victor 2, 1420 Multilabel counter), data analysis were performed with Excel and it is platted as relative mean OD450 nm+/−standard error of the mean.
(§2) Cells were treated with indicated content of AG-1601 for 48 hours, then followed by performance of cell viability assays. […]

[3] = tested on: U87 cells; assay: Cell viability, combination with TMZ in U87 cells; assay type: cell-based, human
Description: as §1, §2

[4] = tested on: T98G cells; assay: Cell viability in TMZ-resistant T98G cells; assay type: cell-based; conditions: TMZ plus AG-1601
Description: Cells were treated with indicated content of AG-1601 for 48 hours, then followed by performance of cell viability assays. Efficacy of AG-1601 in rat cell (see FIGS. 24A and B), of AG-1601 in human glioma cell see FIGS. 25A and 25B), different batches of AG-1601 in C6 and U251 cells (see FIGS. 26A and 26B), of AG-1601 in C6 and U87 cells (see FIGS. 27A and 27B), of AG-1601, TMZ, and Carmustine in U251 cells (see FIGS. 28A and 28B), and of AG-1601, TMZ, and Carmustine in U87 cells (see FIGS. 29A and 29B). […] Cell viability was determined in T98G cell and U251 cell after treatment with DMSO, TMZ, AG-1601 and TMZ plus AG-1601 (FIG. 30).

[5] = tested on: C6 glioma; assay: C6 intracranial glioma rat model; assay type: in vivo, rats
Description: SD male rate were intracranially injected with DMEM medium in 10 μl (sham and small plus AG-1601), and C6 cell at 1×10^6 in 10 μl (glioma and glioma plus AG-1601). C6 cells, a type of murine glioma cell lines, were injected into the right striatum in rats to induce glioma formation. C6 cells were cultured in DMEM containing 10% FBS. C6 cells were suspended in DMEM to implant in rats. Rats injected DMEM containing 10% FBS were grouped as Sham. Tumor formation continued for 7 days, followed by AG1601 was intravenous injected once a day for 6 days. Physical findings included: body weight/2d; effects on synaptic plasticity; electrophysiological tests of LTP and CA3-CA1; mechanism of the study (BDNF/TrkB signaling pathway); Western blot; Synaptic plasticity: BDNF/TrkB/PI3K/Akt/NMDA/PSD95/SYP; Tumor suppression: BDNF/TrkB/RAS/ERK/Bcl-2/Bax; Histology and immunohistochemical analysis; HE staining and immunohistochemistry staining; characterization of brain tumor (localization, size, and regions).

C=CC1=C(C)c2cc3[nH]c(cc4nc(cc5[nH]c(cc1n2)c(C)c5C=C)C(C)=C4CCC(=O)O)c(CCC(=O)NCCCc1ccccc1)c3C [AG-1601, 3-(2,8,13,18-tetramethyl-3-(3-oxo-3-((3-phenylpropyl)amino)propyl)-12,17-divinylporphyrin-7-yl)propanoic acid]
inhibition of growth of glioma cell line C6 [1]: even better inhibitory activity on growth of glioma cells compared to AG-1503 | potentiation of the effect of TMZ [2]: potentiates the effect of TMZ | potentiation of the effect of TMZ [3]: potentiates the effect of TMZ | effect on TMZ-resistance [4]: Overcomes the Effect of TMZ-resistance | body weights ([5]; Glioma vs Glioma+AG1601, 2 weeks): significant difference was found between them | tumor volumes ([5]; Glioma+AG1601 vs Glioma group): reduced | tumor weights ([5]; Glioma+AG1601 vs Glioma group): reduced | body weights ([5]; Sham vs Sham+AG1601, 2 weeks): without significant difference | survival time ([5]; glioma rats treated vs without treatment): longer | glioma growth ([5]; i.v. once a day for 6 days): could suppress glioma growth | efficacy on C6 xenograft tumor ([5]; rat model): shows efficacy
